Where two headings read alike, the source gives them in different places.
Legend:
[1] = biological target: T1, hCES2 (Homo sapiens, UniProt O00748); assay: Initial activity screening with recombinant hCES2; settings: 100 µM substrate, 30 min, 37 °C, 0.2 µg/µL protein, LC–ITMS, mean n = 2
T1 sequence (O00748 27-559): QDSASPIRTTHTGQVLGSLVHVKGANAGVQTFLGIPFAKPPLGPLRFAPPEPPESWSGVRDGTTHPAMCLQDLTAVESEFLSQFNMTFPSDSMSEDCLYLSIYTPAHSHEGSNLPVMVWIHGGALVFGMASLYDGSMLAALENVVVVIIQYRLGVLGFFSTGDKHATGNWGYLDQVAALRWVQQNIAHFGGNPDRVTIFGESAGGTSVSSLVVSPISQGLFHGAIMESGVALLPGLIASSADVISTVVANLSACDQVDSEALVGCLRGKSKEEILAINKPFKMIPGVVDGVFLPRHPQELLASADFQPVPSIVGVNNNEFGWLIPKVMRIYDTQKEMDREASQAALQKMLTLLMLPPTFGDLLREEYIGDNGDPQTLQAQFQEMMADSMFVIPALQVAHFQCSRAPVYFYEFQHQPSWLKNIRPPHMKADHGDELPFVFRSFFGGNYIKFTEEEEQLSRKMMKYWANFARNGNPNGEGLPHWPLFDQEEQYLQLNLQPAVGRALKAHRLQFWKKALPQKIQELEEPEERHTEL

[2] = biological target: T2, hCES1b (Homo sapiens, UniProt P23141); assay: Initial activity screening with recombinant hCES1b; settings: 100 µM substrate, 30 min, 37 °C, 0.2 µg/µL protein, LC–ITMS, mean n = 2
T2 sequence (P23141 18-567): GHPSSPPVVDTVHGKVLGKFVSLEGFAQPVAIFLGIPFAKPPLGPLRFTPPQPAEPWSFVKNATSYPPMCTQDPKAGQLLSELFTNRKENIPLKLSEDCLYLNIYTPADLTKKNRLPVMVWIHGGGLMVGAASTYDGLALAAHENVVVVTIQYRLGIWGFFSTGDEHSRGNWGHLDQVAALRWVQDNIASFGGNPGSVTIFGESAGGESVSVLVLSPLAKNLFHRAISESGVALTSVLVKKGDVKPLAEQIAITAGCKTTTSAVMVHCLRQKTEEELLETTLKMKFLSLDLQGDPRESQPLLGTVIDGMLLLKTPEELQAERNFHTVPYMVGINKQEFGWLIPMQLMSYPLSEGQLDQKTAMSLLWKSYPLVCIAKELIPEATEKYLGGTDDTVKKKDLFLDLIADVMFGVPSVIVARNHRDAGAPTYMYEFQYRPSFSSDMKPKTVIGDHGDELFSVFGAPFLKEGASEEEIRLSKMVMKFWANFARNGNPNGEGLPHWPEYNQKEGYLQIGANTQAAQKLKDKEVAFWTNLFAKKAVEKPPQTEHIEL

[3] = biological target: T3, hCES1c (Homo sapiens, UniProt P23141); assay: Initial activity screening with recombinant hCES1c; settings: 100 µM substrate, 30 min, 37 °C, 0.2 µg/µL protein, LC–ITMS, mean n = 2
T3 sequence (P23141 18-566 isoform P23141-3 limits assumed): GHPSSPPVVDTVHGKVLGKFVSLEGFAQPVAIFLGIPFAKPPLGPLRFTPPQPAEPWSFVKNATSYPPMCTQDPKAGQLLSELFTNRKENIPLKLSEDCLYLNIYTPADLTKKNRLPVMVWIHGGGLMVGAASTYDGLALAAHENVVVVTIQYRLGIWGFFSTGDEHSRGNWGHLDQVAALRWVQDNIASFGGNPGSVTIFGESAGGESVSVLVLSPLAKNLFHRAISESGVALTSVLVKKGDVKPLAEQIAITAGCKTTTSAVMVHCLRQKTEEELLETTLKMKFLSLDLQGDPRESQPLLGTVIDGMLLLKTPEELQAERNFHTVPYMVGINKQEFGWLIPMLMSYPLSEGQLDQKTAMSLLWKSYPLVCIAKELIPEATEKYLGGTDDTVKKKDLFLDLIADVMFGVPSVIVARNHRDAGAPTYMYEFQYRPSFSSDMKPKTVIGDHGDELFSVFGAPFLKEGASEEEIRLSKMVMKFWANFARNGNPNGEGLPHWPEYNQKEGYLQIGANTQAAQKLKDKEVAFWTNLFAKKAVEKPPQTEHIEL

[4] = biological target: T1, hCES2; assay: Enzyme kinetic studies of ester hydrolysis with hCES2; settings: for Vmax (relative), ester hydrolysis by hCES2: peak area ratio metabolite/internal standard
[5] = biological target: T2, hCES1b; assay: Enzyme kinetic studies of ester hydrolysis with hCES1b; settings: for Vmax (relative), ester hydrolysis by hCES1b: peak area ratio metabolite/internal standard
[6] = biological target: T3, hCES1c; assay: Enzyme kinetic studies of ester hydrolysis with hCES1c; settings: for Vmax (relative), ester hydrolysis by hCES1c: peak area ratio metabolite/internal standard
[7] = Initial activity screening with pooled human liver microsomes; settings: 100 µM substrate, 30 min, 37 °C, 2 µg/µL protein, LC–ITMS, mean n = 2
[8] = Initial activity screening with pooled human liver S9 fraction; settings: 100 µM substrate, 30 min, 37 °C, 2 µg/µL protein, LC–ITMS, mean n = 2
[9] = biological target: T2, hCES1b; design: purchased Corning (Amsterdam, The Netherlands); host or cells: baculovirus transfected insect cells; method as in Meyer et al. [2015]; settings: identical incubation conditions and analyzing methods; ref Meyer et al. [2015]; read-out: Km, hCES1b, literature value; cited from earlier work
[10] = biological target: T3, hCES1c; design: purchased Corning (Amsterdam, The Netherlands); host or cells: baculovirus transfected insect cells; method as in Meyer et al. [2015]; settings: identical incubation conditions and analyzing methods; ref Meyer et al. [2015]; read-out: Km, hCES1c, literature value; cited from earlier work
[11] = biological target: T1, hCES2; design: purchased Corning (Amsterdam, The Netherlands); host or cells: baculovirus transfected insect cells; method as in Meyer et al. [2015]; settings: identical incubation conditions and analyzing methods; ref Meyer et al. [2015]; read-out: Km, hCES2, literature value; cited from earlier work

COc1ccc2c3c1O[C@H]1C(OC(C)=O)=CC[C@H]4[C@@H](C2)N(C)CC[C@]314 [Thebacon, reference compound]
Relative amount of hydrolysis metabolite formed, hCES2 [1]: 19% | Relative amount of hydrolysis metabolite formed, hCES1b [2]: 47% | Relative amount of hydrolysis metabolite formed, hCES1c [3]: 10% | Clint (relative in vitro intrinsic clearance), hCES2 ([4]; Clint = Vmax/Km): 0.89 AU/min/mg/µM | Km ([4]; read-out: Corrected Km, hCES2, current Km adjusted by 2.2-fold enzyme load activity factor): 247 µM | Km ([4]; read-out: Km, ester hydrolysis by hCES2, ± S.D., Michaelis–Menten fit, conditions of Table 1): 543 ± 87 µM | Vmax (relative), ester hydrolysis by hCES2 ([4]; ± S.D.): 482 ± 31 AU/min/mg | Vmax (relative), ester hydrolysis by hCES2 ([4]; ± S.D., listed as thebacon): 482 AU/min/mg | Clint (relative in vitro intrinsic clearance), hCES1b ([5]; Clint = Vmax/Km): 0.60 AU/min/mg/µM | Km ([5]; read-out: Corrected Km, hCES1b, current Km adjusted by 2.4-fold enzyme load activity factor): 273 µM | Km ([5]; read-out: Km, ester hydrolysis by hCES1b, ± S.D., Michaelis–Menten fit, conditions of Table 1): 655 ± 210 µM | Vmax (relative), ester hydrolysis by hCES1b ([5]; ± S.D.): 394 ± 40 AU/min/mg | Vmax (relative), ester hydrolysis by hCES1b ([5]; ± S.D., listed as thebacon): 394 AU/min/mg | Clint (relative in vitro intrinsic clearance), hCES1c ([6]; Clint = Vmax/Km): 0.54 AU/min/mg/µM | Km ([6]; read-out: Corrected Km, hCES1c, current Km adjusted by 5.3-fold enzyme load activity factor): 289 µM | Km ([6]; read-out: Km, ester hydrolysis by hCES1c, ± S.D., Michaelis–Menten fit, conditions of Table 1): 1530 ± 470 µM | Vmax (relative), ester hydrolysis by hCES1c ([6]; ± S.D.): 831 ± 140 AU/min/mg | Vmax (relative), ester hydrolysis by hCES1c ([6]; ± S.D., listed as thebacon): 831 AU/min/mg | Relative amount of hydrolysis metabolite formed, pHLM [7]: about 80% | Relative amount of hydrolysis metabolite formed, pHLS9 [8]: about 80% | Km [9]: 272 µM | Km [10]: 264 µM | Km [11]: 166 µM

Source: publication PMC9352624, “Going deeper into the toxicokinetics of synthetic cannabinoids: in vitro contribution of human carboxylesterases” (Archives of Toxicology, 2022)
